Where two headings read alike, the source gives them in different places.
Tests used:
HER2 = target: T1, HER2 (Homo sapiens, UniProt P04626); assay: Enzyme inhibitory activity on HER2 (time resolution fluorescence, biotinylated poly-Glu-Tyr substrate); format: biochemical
T1 construct: purchased Carna Biosciences, Inc; host or cells: insect cell expression system
Protocol: (§1) Enzyme Inhibitory Activity of Test Compound on EGFR and HER2
(§2) EGFR and HER2 purified from an insect cell expression system, and a biotinylated substrate (synthetic peptide of glutamic acid:tyrosine=4:1) were added to a 384-well plate with ATP added thereto, and an enzyme reaction was performed at room temperature. After completion of the enzyme reaction, an anti-phosphorylated tyrosine antibody labeled with europium and streptavidin labeled with alphycocyanine were added, and a phosphorylated tyrosine residue was quantified by a time resolution fluorescence method.
(§3) A test compound was adjusted to 10 mM using DMSO.
(§4) Further, using 10% DMSO solution, a 1 mM solution was prepared, and this was regarded as a maximum concentration point.
(§5) As a dilution series, a 4-fold dilution series was prepared to a 10 stage.
(§6) As a buffer, TBS containing 10 mM MgCl2, 5 mM MnCl2, 0.2 mM Na3VO4, and 0.1% BSA was used.
(§7) As EGFR and HER2 enzymes, those purified from an insect cell expression system were purchased from Carna Biosciences, Inc.
HER2 kinase was adjusted to 1000 ng/ml using a buffer.
(§8) As a substrate, biotinylated poly-Glu-Tyr (4:1, manufactured by CISbio) was used. A concentration was adjusted to 3.125 μg/ml using the above buffer.
An ATP concentration on study of the HER2 enzyme was adjusted to 290 μM.
(§9) For preparing a detection reagent, TBS containing 30 mM EDTA, 0.8M KF and 0.1% BSA was used.
(§10) An anti-phosphorylated tyrosine antibody labeled with europium, PT-66K (CISbio) was adjusted to 195 ng/ml, and streptavidin labeled with alphycocyanine, SA-XL (CISbio) was adjusted to 5 μg/ml.
(§11) As an assay plate, a 384-well plate was used. Per one well, 1.1 μl of a test compound, 4 μl of a substrate solution, and 4 μl of an enzyme solution were added, and 2 μl of an ATP solution was added to initiate an enzyme reaction. The enzyme reaction was performed at room temperature for 60 minutes, and 10 μl of a detection reagent was added to complete the reaction. One hour after completion of the reaction, time resolution fluorescent measurement was performed.

BT-474 = assay: In vitro cell proliferation inhibition, WST assay; format: cell-based, human; conditions: BT-474 cells, cultured for 3 days, read-out: BT-474 (nM) proliferation inhibitory activity (IC50 value)
Protocol: Test of In Vitro Cell Proliferation Inhibition of Test Compound
As a human-derived cancer cell strain, BT-474 was used. Cells were all cultured in a 37° C., 5% CO2 incubator in a medium in which 10% bovine fetal serum (ICN) and 50 units ml penicillin/60 μg/ml streptomycin solution (GIBCO) were added to Dulbecco's Modified Essential Medium (DMEM, Nacalai Tesque, Inc).

EGFR = target: T2, EGFR (Homo sapiens, UniProt P00533); assay: Enzyme inhibitory activity on EGFR (time resolution fluorescence, biotinylated poly-Glu-Tyr substrate); format: biochemical
T2 construct: purchased Carna Biosciences, Inc; host or cells: insect cell expression system
T2 sequence (P00533 25-1210): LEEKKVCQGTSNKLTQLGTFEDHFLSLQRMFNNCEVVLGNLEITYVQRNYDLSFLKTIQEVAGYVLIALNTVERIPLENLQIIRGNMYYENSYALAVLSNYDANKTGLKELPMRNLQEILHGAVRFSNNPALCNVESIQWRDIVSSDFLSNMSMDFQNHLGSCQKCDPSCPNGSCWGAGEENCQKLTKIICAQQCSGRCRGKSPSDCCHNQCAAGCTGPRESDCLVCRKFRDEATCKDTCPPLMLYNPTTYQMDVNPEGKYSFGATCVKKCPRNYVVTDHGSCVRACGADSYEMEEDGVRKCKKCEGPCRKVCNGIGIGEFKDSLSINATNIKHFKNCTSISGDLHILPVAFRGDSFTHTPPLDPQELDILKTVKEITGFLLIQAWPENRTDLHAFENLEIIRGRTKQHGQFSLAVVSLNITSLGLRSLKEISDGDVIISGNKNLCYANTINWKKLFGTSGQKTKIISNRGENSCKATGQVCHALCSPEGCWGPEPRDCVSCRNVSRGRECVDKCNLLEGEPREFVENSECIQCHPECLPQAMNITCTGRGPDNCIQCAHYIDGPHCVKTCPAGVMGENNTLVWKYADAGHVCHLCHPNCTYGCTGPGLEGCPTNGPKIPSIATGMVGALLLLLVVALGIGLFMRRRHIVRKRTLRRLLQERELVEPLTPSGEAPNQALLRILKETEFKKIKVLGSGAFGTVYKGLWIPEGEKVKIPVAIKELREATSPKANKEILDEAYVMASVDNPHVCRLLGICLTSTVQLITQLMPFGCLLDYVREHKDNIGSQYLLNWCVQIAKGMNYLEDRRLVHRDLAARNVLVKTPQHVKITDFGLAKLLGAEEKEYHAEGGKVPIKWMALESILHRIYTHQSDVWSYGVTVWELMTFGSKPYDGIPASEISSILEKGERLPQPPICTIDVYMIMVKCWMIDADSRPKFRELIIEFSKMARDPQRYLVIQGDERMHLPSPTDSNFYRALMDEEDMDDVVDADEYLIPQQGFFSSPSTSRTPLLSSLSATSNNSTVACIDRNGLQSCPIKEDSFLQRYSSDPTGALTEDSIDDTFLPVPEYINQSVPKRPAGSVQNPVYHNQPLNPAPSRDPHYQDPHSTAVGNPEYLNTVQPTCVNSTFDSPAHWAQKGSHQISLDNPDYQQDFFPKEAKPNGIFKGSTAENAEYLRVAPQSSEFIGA
Protocol: as §1, §2, §3, §4, §5, §6, §7
An EGFR enzyme solution was adjusted to 250 ng/ml using a buffer.
as §8
An ATP concentration on study of the EGFR enzyme was adjusted to 125 μM using the buffer.
as §9, §10, §11

[1] = enzyme reaction at room temperature for 60 minutes
[2] = HER2 purified from insect cell expression system, ATP solution 290 μM, room temperature, 60 minutes
[3] = EGFR purified from insect cell expression system, ATP solution 125 μM, room temperature, 60 minutes

T1 sequence (P04626 23-1255): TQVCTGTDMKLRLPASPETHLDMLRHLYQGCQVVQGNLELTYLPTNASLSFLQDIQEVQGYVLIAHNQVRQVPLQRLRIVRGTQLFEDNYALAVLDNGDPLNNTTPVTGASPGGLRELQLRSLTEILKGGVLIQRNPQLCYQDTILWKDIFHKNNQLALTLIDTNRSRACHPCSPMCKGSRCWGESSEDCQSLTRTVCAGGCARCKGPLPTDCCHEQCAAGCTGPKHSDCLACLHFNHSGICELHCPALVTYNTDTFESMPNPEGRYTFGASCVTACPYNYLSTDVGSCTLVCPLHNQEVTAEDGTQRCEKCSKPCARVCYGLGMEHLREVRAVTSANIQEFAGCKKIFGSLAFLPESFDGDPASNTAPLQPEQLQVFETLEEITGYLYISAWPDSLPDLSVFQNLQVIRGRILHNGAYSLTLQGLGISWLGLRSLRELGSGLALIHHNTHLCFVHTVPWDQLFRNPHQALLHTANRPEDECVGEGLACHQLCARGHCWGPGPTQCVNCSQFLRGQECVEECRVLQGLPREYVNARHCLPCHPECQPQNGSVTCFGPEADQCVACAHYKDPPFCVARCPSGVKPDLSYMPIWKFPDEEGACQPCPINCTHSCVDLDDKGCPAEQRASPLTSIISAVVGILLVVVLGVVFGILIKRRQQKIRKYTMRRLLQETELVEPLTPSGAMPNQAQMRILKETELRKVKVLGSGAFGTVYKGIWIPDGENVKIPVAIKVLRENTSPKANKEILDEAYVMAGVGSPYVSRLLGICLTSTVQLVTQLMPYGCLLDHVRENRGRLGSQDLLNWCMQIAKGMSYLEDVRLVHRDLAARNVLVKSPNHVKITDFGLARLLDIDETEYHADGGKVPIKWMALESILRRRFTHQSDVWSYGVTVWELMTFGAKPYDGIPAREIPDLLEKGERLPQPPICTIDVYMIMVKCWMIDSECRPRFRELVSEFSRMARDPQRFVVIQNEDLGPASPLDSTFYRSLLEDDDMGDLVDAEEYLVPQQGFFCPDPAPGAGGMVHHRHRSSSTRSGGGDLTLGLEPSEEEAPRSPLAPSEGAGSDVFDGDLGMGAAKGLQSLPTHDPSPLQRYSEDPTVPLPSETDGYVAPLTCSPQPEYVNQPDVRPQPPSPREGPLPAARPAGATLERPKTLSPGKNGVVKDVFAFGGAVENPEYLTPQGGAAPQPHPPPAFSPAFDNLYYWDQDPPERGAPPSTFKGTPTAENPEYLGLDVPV

Row | IC50 (HER2; [1]) | IC50 (BT-474; Homo sapiens, BT-474, 72 h) | IC50 (EGFR; [1]) | IC50 (HER2; [2]) | IC50 (EGFR; [3]) | IC50 (BT-474) | SMILES
1 | 5.8 nM | 26 nM | 6.1 nM |  |  |  | CC#C/C(=N\OCCN1CCCC1)c1ccc2ncnc(Nc3ccc(OCc4ccccn4)c(Cl)c3)c2c1 [VIII-148]
2 |  | 13 nM |  | 9.2 nM | 9.6 nM |  | CC#C/C(=N\OCCNC[C@H](C)CO)c1ccc2ncnc(Nc3ccc(OCc4cccc(F)c4)c(Cl)c3)c2c1 [VIII-63]
3 | 9 nM | 44 nM | 8 nM |  |  |  | CC#C/C(=N\OC[C@@H]1CNCCO1)c1ccc2ncnc(Nc3ccc(OCc4ccccn4)c(Cl)c3)c2c1 [VIII-168]
4 |  | 24 nM |  | 25 nM | 11 nM |  | CC#CC(=NOCCNCC)c1ccc2ncnc(Nc3ccc(OCc4cccc(F)c4)c(Cl)c3)c2c1 [VIII-35]
5 | 5.2 nM | 50 nM | 8.1 nM |  |  |  | CC#C/C(=N\OCCNC(C)COC)c1ccc2ncnc(Nc3ccc(OCc4ccccn4)c(Cl)c3)c2c1 (stereo not drawn) [VIII-130]
6 | 27 nM | 25 nM | 17 nM |  |  |  | CC#C/C(=N\OCCNC[C@@H]1CCCO1)c1ccc2ncnc(Nc3ccc4c(cnn4Cc4cccc(F)c4)c3)c2c1 [VIII-189]
7 |  | 40 nM |  | 18 nM | 23 nM |  | CC#C/C(=N\OC[C@@H]1CNC[C@H](C)O1)c1ccc2ncnc(Nc3ccc(OCc4cccc(F)c4)c(Cl)c3)c2c1 [VIII-109]
8 | 11.7 nM | 52 nM | 9.9 nM |  |  |  | CC#C/C(=N\OC[C@H]1CNCC(=O)N1)c1ccc2ncnc(Nc3ccc(OCc4ccccn4)c(Cl)c3)c2c1 [VIII-171]
9 |  | 25 nM |  | 24 nM | 27 nM |  | CC#C/C(=N\OC[C@@H]1CCCN1CC(=O)O)c1ccc2ncnc(Nc3ccc(OCc4cccc(F)c4)c(Cl)c3)c2c1 [VIII-89]
10 |  | 38 nM |  | 321 nM | 453 nM |  | CC#C/C(=N\OCCN1C[C@@H](C)O[C@@H](C)C1)c1ccc2ncnc(Nc3ccc(OCc4cccc(F)c4)c(Cl)c3)c2c1 [VIII-93]
11 | 30 nM | 19 nM | 38 nM |  |  |  | COCC#C/C(=N\OC[C@@H]1COCCN1)c1ccc2ncnc(Nc3ccc(S(=O)(=O)c4ccccc4)cc3)c2c1 [VIII-209]
12 | 11 nM | 23 nM | 11 nM |  |  |  | CC#C/C(=N\OCCN1CCC(O)CC1)c1ccc2ncnc(Nc3ccc(OCc4ccccn4)c(Cl)c3)c2c1 [VIII-165]
13 |  | 27 nM |  | 15 nM | 19 nM |  | CC#C/C(=N\OCCNCCCN1CCCC1=O)c1ccc2ncnc(Nc3ccc(OCc4cccc(F)c4)c(Cl)c3)c2c1 [VIII-50]
14 | 6.3 nM | 12 nM | 7.1 nM |  |  |  | CC#C/C(=N\OC[C@@H](C)N)c1ccc2ncnc(Nc3ccc(OCc4ccccn4)c(Cl)c3)c2c1 [VIII-129]
15 |  |  |  | 25 nM | 37 nM | 50 nM | CC#C/C(=N\OC[C@H]1CNC[C@@H](C)O1)c1ccc2ncnc(Nc3ccc(OCc4cccc(F)c4)c(Cl)c3)c2c1 [VIII-116]
16 |  | 26 nM |  | 150 nM | 213 nM |  | CC#C/C(=N\OCCN1CCNC(=O)C1)c1ccc2ncnc(Nc3ccc(OCc4cccc(F)c4)c(Cl)c3)c2c1 [VIII-94]
17 |  |  |  | 14 nM | 16 nM | 32 nM | CC#C/C(=N\OCCCNC)c1ccc2ncnc(Nc3ccc(OCc4cccc(F)c4)c(Cl)c3)c2c1 [VIII-67]

Row | IC50 (HER2; [1]) | IC50 (BT-474; Homo sapiens, BT-474, 72 h) | IC50 (EGFR; [1]) | IC50 (HER2; [2]) | IC50 (EGFR; [3]) | IC50 (BT-474) | SMILES
18 |  | 63 nM |  | 348 nM | 103 nM |  | CC/C(=N\OCCN1CCOCC1)c1ccc2ncnc(Nc3ccc(OCc4cccc(F)c4)c(Cl)c3)c2c1 [VIII-7]
19 |  |  |  | 36 nM | 32 nM | 29 nM | CC#C/C(=N\O[C@H]1CN[C@H](CO)C1)c1ccc2ncnc(Nc3ccc(OCc4cccc(F)c4)c(Cl)c3)c2c1 [VIII-92]
20 | 4.4 nM | 31 nM | 5.5 nM |  |  |  | CC#C/C(=N\OCCNC1CCN(S(C)(=O)=O)CC1)c1ccc2ncnc(Nc3ccc(OCc4ccccn4)c(Cl)c3)c2c1 [VIII-142]
21 | 14 nM | 31 nM | 42 nM |  |  |  | CC#C/C(=N\OCCNC)c1ccc2ncnc(Nc3ccc(Oc4ccc(C)nc4)c(C)c3)c2c1 [VIII-210]
22 |  | 16 nM |  | 28 nM | 43 nM |  | CC#C/C(=N\OCCN1CCC[C@@H]1CO)c1ccc2ncnc(Nc3ccc(OCc4cccc(F)c4)c(Cl)c3)c2c1 [VIII-69]
23 | 5.2 nM | 33 nM | 6.3 nM |  |  |  | CNCCO/N=C(\C#CCOC)c1ccc2ncnc(Nc3ccc4c(cnn4Cc4cccc(F)c4)c3)c2c1 [VIII-199]
24 |  | 28 nM |  | 150 nM | 164 nM |  | CC#C/C(=N\OC[C@@H]1CCCN1CCOC)c1ccc2ncnc(Nc3ccc(OCc4cccc(F)c4)c(Cl)c3)c2c1 [VIII-74]
25 |  | 25 nM |  | 68 nM | 19 nM |  | CC#C/C(=N\OCCNC1CCOCC1)c1ccc2ncnc(Nc3ccc(OCc4cccc(F)c4)c(Cl)c3)c2c1 [VIII-55]
26 |  |  |  | 6.3 nM | 26 nM | 28 nM | CC#C/C(=N\OCCNC(C)COC)c1ccc2ncnc(Nc3ccc(OCc4cccc(F)c4)c(Cl)c3)c2c1 (stereo not drawn) [VIII-44]
27 |  | 24 nM |  | 84 nM | 84 nM |  | CC#C/C(=N\OCCN1CCC(NC(C)=O)CC1)c1ccc2ncnc(Nc3ccc(OCc4cccc(F)c4)c(Cl)c3)c2c1 [VIII-99]
28 |  |  |  | 28 nM | 19 nM | 9 nM | CC#C/C(=N\OCCNC[C@H]1CCC(=O)N1)c1ccc2ncnc(Nc3ccc(OCc4cccc(F)c4)c(Cl)c3)c2c1 [VIII-52]
29 | 43 nM | 29 nM | 45 nM |  |  |  | CC#C/C(=N\OCCN1CCOCC1)c1ccc2ncnc(Nc3ccc4c(cnn4Cc4cccc(F)c4)c3)c2c1 [VIII-195]
30 | 15 nM | 25 nM | 14 nM |  |  |  | CC#C/C(=N\OCCN1CC[C@@H](OC(N)=O)C1)c1ccc2ncnc(Nc3ccc4c(cnn4Cc4cccc(F)c4)c3)c2c1 [VIII-193]
31 |  |  |  | 410 nM | 111 nM | 35 nM | CC#CC(=NOCC1CCC(=O)N1)c1ccc2ncnc(Nc3ccc(OCc4cccc(F)c4)c(Cl)c3)c2c1 (stereo not drawn) [VIII-78]
32 |  |  |  | 476 nM | 642 nM | 6 nM | CC#C/C(=N\OC[C@H]1CCCN1CC(=O)OC)c1ccc2ncnc(Nc3ccc(OCc4cccc(F)c4)c(Cl)c3)c2c1 [VIII-87]
33 | 18 nM | 47 nM | 17 nM |  |  |  | CC#C/C(=N\OC[C@@H]1CCCN1CCO)c1ccc2ncnc(Nc3ccc(OCc4ccccn4)c(Cl)c3)c2c1 [VIII-160]
34 | 4.2 nM | 21 nM | 4.8 nM |  |  |  | CC#C/C(=N\OC[C@H]1COCCN1)c1ccc2ncnc(Nc3ccc(OCc4ccccn4)c(Cl)c3)c2c1 [VIII-167]

Source: patent publication US8202879B2, “Quinazoline derivatives having tyrosine kinase inhibitory activity” (Shionogi & Co., Ltd., priority 2005, dated 2012)
